Experimental data as given in patent US9315475B2 (MERCK SHARP & DOHME CORP., priority 2011, dated 2016).
Where a name gives a salt, the structure may show the parent alone.

Tests used:
wildtype HIV-1 protease = biological target: T1, wildtype HIV-1 protease (Human immunodeficiency virus type 1 group M subtype B, UniProt P04585); assay: Assay for inhibition of microbial expressed HIV protease (Pepcleav); format: biochemical; settings: wild type HIV-1 protease expressed in E. coli, peptide substrate, pH 5.5; mean of at least two independent experiments; read-out: Pepcleav
T1 construct: the wildtype HIV-1 protease (which was expressed in Escherichia coli); made in house; host or cells: Escherichia coli
Summary of the method: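 E. coli-expressed wild-type HIV-1 protease (20 pM) preincubated 30 min at room temperature with inhibitor in pH 5.5 sodium acetate/NaCl/BSA buffer, then 400 μM Val-Ser-Gln-Asn-(βnaphthyl)Ala-Pro-Ile-Val added for 1 h at 30 °C. Quenched with formic acid; product quantified by LC-MS/MS peak area, indinavir internal standard.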

HIV-1 (H9IIIB strain) = assay: Antiviral acute infection assay in cell culture (Spread); format: cell-based; settings: HIV-1 H9IIIB infection of MT-4 human T-lymphoid cells in 10% FBS, mean of at least two independent experiments
Text: Antiviral Assays in Cell Culture (“Spread”)
Acute Infection Assay (“Spread”) data were generated using HIV-1 (H9IIIB strain) infection of MT-4 human T-lymphoid cells in 10% FBS, and according to the methods disclosed by J. P. Vacca et al, “L-735,524: An orally bioavailable human immunodeficiency virus type 1 protease inhibitor,” Proc. Natl. Acad. Sci. USA, Vol. 91, pp. 4096-4100 (April 1994).

[1] = Human immunodeficiency virus 1, T-lymphoid

SMILES | IC50 (wildtype HIV-1 protease) | EC50 (HIV-1 (H9IIIB strain); [1]) | EC50 (HIV-1 (H9IIIB strain))
O=C(NCC(F)(F)F)OC[C@@H]1CO[C@H](CCc2c(F)cncc2NC(=O)[C@@H](NC(=O)OC2CCCC2)C(c2ccc(F)cc2)c2ccc(F)cc2)CN1 [Example 278, Nα-[(cyclopentyloxy)carbonyl]-4-fluoro-β-(4-fluorophenyl)-N-(5-fluoro-4-{2-[(2R,5S)-5-({[(2,2,2-trifluoroethyl)carbamoyl]oxy}methyl)morpholin-2-yl]ethyl}pyridin-3-yl)-L-phenylalaninamide] | 3.2 nM | 38 nM | 
N[C@H](C(=O)Nc1cncc(F)c1CC[C@@H]1CN[C@H](COC(=O)NC2CC(F)(F)C2)CO1)C(c1ccc(F)cc1)c1ccc(F)cc1 [Example 217, N-(4-{2-[(2R,5S)-5-({[(3,3-difluorocyclobutyl)carbamoyl]oxy}methyl)morpholin-2-yl]ethyl}-5-fluoropyridin-3-yl)-4-fluoro-β-(4-fluorophenyl)-L-phenylalaninamide] | 2.7 nM | 94 nM | 
COC(=O)N[C@H](C(=O)Nc1cccc(F)c1CC[C@@H]1CN[C@H](COC(N)=O)CO1)C(c1ccc(F)cc1)c1ccc(F)cc1 [Example 284, N-[2-(2-{(2R,5S)-5-[(carbamoyloxy)methyl]morpholin-2-yl}ethyl)-3-fluorophenyl]-4-fluoro-β-(4-fluorophenyl)-Nα-(methoxy-carbonyl)-L-phenylalaninamide] | 12 nM | 19 nM | 
N[C@H](C(=O)Nc1cccc(F)c1CC[C@@H]1CN[C@H](COC(=O)NCC(F)(F)F)CO1)C(c1ccc(F)cc1)c1ccc(F)cc1 [Example 80, 4-Fluoro-β-(4-fluorophenyl)-N-(3-fluoro-2-{2-[(2R,5S)-5-({[(2,2,2-trifluoroethyl)carbamoyl]oxy}methyl)morpholin-2-yl]ethyl}phenyl)-L-phenylalaninamide dihydrochloride] | 9.4 nM | 45 nM | 
NC(=O)OC[C@@H]1CO[C@H](COc2c(F)cc(F)cc2NC(=O)[C@@H](N)C(c2ccc(F)cc2)c2ccc(F)cc2)CN1 [Example 258, N-[2-({(2S,5S)-5-[(carbamoyloxy)methyl]morpholin-2-yl}methoxy)-3,5-difluorophenyl]-4-fluoro-β-(4-fluorophenyl)-L-phenylalaninamide] | 5 nM | 260 nM | 
CS(=O)(=O)c1cccc([C@@H](CC(=O)Nc2cccc(F)c2CC[C@@H]2CN[C@H](COC(=O)NCC(F)(F)F)CO2)c2ccc(Cl)cc2)c1 [Example 164, [(3S,6R)-6-{2-[2-({(3S)-3-(4-chlorophenyl)-3-[3-(methylsulfonyl)phenyl]propanoyl}amino)-6-fluorophenyl]ethyl}morpholin-3-yl] methyl (2,2,2-trifluoroethyl)carbamate] | 3.4 nM | 63 nM | 
O=C(CC(c1ccccc1)c1ccccc1)Nc1cncc(F)c1CC[C@@H]1CN[C@H](COC(=O)NCC(F)(F)F)CO1 [Example 146, [(3S,6R)-6-(2-{3-[(3,3-diphenylpropanoyl)amino]-5-fluoropyridin-4-yl}ethyl)morpholin-3-yl]methyl (2,2,2-trifluoroethyl)carbamate] | 13 nM | 47 nM | 
N[C@H](C(=O)Nc1cncc(F)c1CC[C@@H]1CN[C@H](CO)CO1)[C@@H](c1ccccc1)c1ccnc2ccccc12 [Example 249, (βS)-N-(5-fluoro-4-{2-[(2R,5R)-5-(hydroxymethyl)morpholin-2-yl]ethyl}pyridin-3-yl)-β-quinolin-4-yl-L-phenylalaninamide] | 9.4 nM | 3000 nM | 
N[C@H](C(=O)Nc1cncc(F)c1CC[C@@H]1CN[C@H](COC(=O)NCC(F)(F)F)CO1)[C@H](c1ccccc1)c1ccc(OC(F)(F)F)cc1 [Example 238, (βR)-N-(5-fluoro-4-{2-[(2R,5S)-5-({[(2,2,2-trifluoroethyl)carbamoyl]oxy}methyl)morpholin-2-yl]ethyl}pyridin-3-yl)-β-phenyl-O-(trifluoromethyl)-L-tyrosinamide] | 69 nM | 470 nM | 
N[C@H](C(=O)Nc1c(Cl)cccc1OC[C@@H]1CN[C@H](COC(=O)NCC(F)(F)F)CO1)C(c1ccc(F)cc1)c1ccc(F)cc1 [Example 261, N-(2-chloro-6-{[(2S,5S)-5-({[(2,2,2-trifluoroethyl)carbamoyl]oxy}methyl)morpholin-2-yl]methoxy}phenyl)-4-fluoro-β-(4-fluorophenyl)-L-phenylalaninamide] | 4.3 nM |  | 170 nM
N[C@H](C(=O)Nc1cccc(F)c1CC[C@@H]1CN[C@H](COC(=O)NCC(F)(F)F)CO1)[C@@H](c1ccc(F)cc1)c1cc(F)cc(F)c1 [Example 251, (βS)-3,5-difluoro-β-(4-fluorophenyl)-N-(3-fluoro-2-{2-[(2R,5S)-5-({[(2,2,2-trifluoroethyl)carbamoyl]oxy}methyl)morpholin-2-yl]ethyl}phenyl)-L-phenylalaninamide] | 8.2 nM | 32 nM | 
N[C@H](C(=O)Nc1cncc(F)c1CC[C@@H]1CN[C@H](COC(=O)NC[C@H]2CCC(=O)N2)CO1)C(c1ccc(F)cc1)c1ccc(F)cc1 [Example 254, 4-fluoro-N-(5-fluoro-4-{2-[(2R,5S)-5-{[({[(2R)-5-oxopyrrolidin-2-yl]methyl}carbamoyl)oxy]methyl}morpholin-2-yl]ethyl}pyridin-3-yl)-β-(4-fluorophenyl)-L-phenylalaninamide] | 7.6 nM | 1100 nM | 
COC(=O)N[C@H](C(=O)Nc1cccc(F)c1CC[C@@H]1CN[C@H](COC(=O)NCC(F)(F)F)CO1)[C@@H](c1ccc(F)cc1)c1cc(F)cc(F)c1 [Example 292, (βS)-3,5-difluoro-β-(4-fluorophenyl)-N-(3-fluoro-2-{2-[(2R,5S)-5-({[(2,2,2-trifluoroethyl)carbamoyl]oxy}methyl)morpholin-2-yl]ethyl}phenyl)-Nα-(methoxy-carbonyl)-L-phenylalaninamide] | 3.6 nM | 16 nM | 
O=C(C[C@H](c1ccccc1)c1ccc(Cl)cc1)Nc1cccc(F)c1CC[C@@H]1CN[C@H](COC(=O)NCC(F)(F)F)CO1 [Example 150, {(3S,6R)-6-[2-(2-{[(3R)-3-(4-chlorophenyl)-3-phenylpropanoyl]amino}-6-fluorophenyl)ethyl]morpholin-3-yl}methyl (2,2,2-trifluoroethyl) carbamate] | 11 nM | 130 nM | 
COC(=O)N[C@H](C(=O)Nc1cccc(F)c1CC[C@@H]1CN[C@H](COC(=O)NCC(F)(F)F)CO1)C(c1cccc(F)c1)c1cccc(F)c1 [Example 307, 3-fluoro-β-(3-fluorophenyl)-N-(3-fluoro-2-{2-[(2R,5S)-5-({[(2,2,2-trifluoroethyl)carbamoyl]oxy}methyl)morpholin-2-yl]ethyl}phenyl)-Nα-(methoxy-carbonyl)-L-phenylalaninamide] | 3 nM | 14 nM | 
N[C@H](C(=O)Nc1cccc(F)c1CC[C@@H]1CN[C@H](COC(=O)NCC(F)(F)F)CO1)[C@H](c1ccccc1)c1cccc(Cl)c1 [Example 244, (βR)-3-chloro-N-(3-fluoro-2-{2-[(2R,5S)-5-({[(2,2,2-trifluoroethyl)carbamoyl]oxy}methyl)morpholin-2-yl]ethyl}phenyl)-β-phenyl-L-phenylalaninamide] | 22 nM | 120 nM | 
CC(C)COC(=O)N[C@H](C(=O)Nc1cncc(F)c1CC[C@@H]1CN[C@H](COC(=O)NCC(F)(F)F)CO1)C(c1ccc(F)cc1)c1ccc(F)cc1 [Example 140, 4-Fluoro-β-(4-fluorophenyl)-N-(5-fluoro-4-{2-[(2R,5S)-5-({[(2,2,2-trifluoroethyl)carbamoyl]oxy}methyl)morpholin-2-yl]ethyl}pyridin-3-yl)-Nα-[(2-methylpropoxy)carbonyl]-L-phenylalaninamide] | 2.1 nM | 21 nM | 
COC(=O)N[C@H](C(=O)Nc1cncc(F)c1CC[C@@H]1CN[C@H](COC(=O)NCC(F)(F)F)CO1)[C@@H](c1ccc(F)cc1)c1cccc(F)c1 [Example 281, (βS)-3-fluoro-β-(4-fluorophenyl)-N-(5-fluoro-4-{2-[(2R, 5S)-5-({[(2,2,2-trifluoroethyl)carbamoyl]oxy}methyl)morpholin-2-yl]ethyl}pyridin-3-yl)-Nα-(methoxycarbonyl)-L-phenylalaninamide] | 0.9 nM | 14 nM | 
N[C@H](C(=O)Nc1cc(F)ccc1CC[C@@H]1CN[C@H](COC(=O)NCC(F)F)CO1)C(c1ccccc1)c1ccccc1 [Example 237, N-(2-{2-[(2R,5S)-5-({[(2,2-difluoroethyl)carbamoyl]oxy}methyl)morpholin-2-yl]ethyl}-5-fluorophenyl)-β-phenyl-L-phenylalaninamide] | 69 nM | 190 nM | 
COC(=O)N[C@H](C(=O)Nc1cncc(F)c1CC[C@@H]1CN[C@H](COC(=O)NCC(F)(F)F)CO1)[C@@H](c1ccc(F)cc1)c1ccc(F)c(F)c1 [Example 288] | 3.2 nM | 16 nM | 
N[C@H](C(=O)Nc1cc(F)cc(F)c1OC[C@@H]1CN[C@H](COC(=O)NCC(F)(F)F)CO1)C(c1ccc(F)cc1)c1ccc(F)cc1 [Example 245, N-(3,5-difluoro-2-{[(2S,5S)-5-({[(2,2,2-trifluoroethyl)carbamoyl]oxy}methyl)morpholin-2-yl]methoxy}phenyl)-4-fluoro-β-(4-fluorophenyl)-L-phenylalaninamide] | 16 nM | 360 nM | 
